{"source": "ChEMBL document CHEMBL4190297", "about": "“Cafestol, a Bioactive Substance in Coffee, Has Antidiabetic Properties in KKAy Mice” (J Nat Prod, 2017)", "key": {"Mus musculus [1]": {"species_on_record": "Mus musculus", "assay": "Toxicity in KK-Ay diabetic mouse model assessed as increase in body weight at 1.1 mg added daily to normal chow pellets for 8 weeks", "assay_type": "organism-based", "conditions": "in vivo, po, 1344 h"}, "Mus musculus [2]": {"species_on_record": "Mus musculus", "assay": "Antidiabetic activity in KK-Ay diabetic mouse model assessed as increase in insulin levels in plasma at 1.1 mg added daily to normal chow pellets for 10 weeks by radioimmunoassay", "assay_type": "functional, organism-based"}, "Mus musculus [3]": {"species_on_record": "Mus musculus", "assay": "Antidiabetic activity in KK-Ay diabetic mouse model assessed as increase in HDL levels at 0.4 to 1.1 mg added daily to normal chow pellets for 10 weeks by colorimetric analysis", "assay_type": "functional, organism-based"}, "Mus musculus [4]": {"species_on_record": "Mus musculus", "assay": "Antidiabetic activity in KK-Ay diabetic mouse model assessed as decrease in plasma triglycerides level at 0.14 to 1.1 mg added daily to normal chow pellets for 10 weeks by colorimetric analysis", "assay_type": "functional, organism-based"}, "Mus musculus [5]": {"species_on_record": "Mus musculus", "assay": "Antidiabetic activity in KK-Ay diabetic mouse model assessed as decrease in GCRG mRNA expression levels in muscle tissue at 0.4 mg added daily to normal chow pellets for 10 weeks by qRT-PCR analysis", "assay_type": "functional, organism-based"}, "Mus musculus [6]": {"species_on_record": "Mus musculus", "assay": "Antidiabetic activity in KK-Ay diabetic mouse model assessed as increase in INSR mRNA expression levels in liver tissue at 1.1 mg added daily to normal chow pellets for 10 weeks by qRT-PCR analysis", "assay_type": "functional, organism-based"}, "Mus musculus [7]": {"species_on_record": "Mus musculus", "assay": "Effect on Mtor mRNA expression levels in adipose tissue of KK-Ay diabetic mouse model at 0.4 to 1.1 mg added daily to normal chow pellets for 10 weeks by qRT-PCR analysis", "assay_type": "functional, organism-based"}, "Mus musculus [8]": {"species_on_record": "Mus musculus", "assay": "Effect on Gcgr mRNA expression levels in adipose tissue of KK-Ay diabetic mouse model at 0.4 to 1.1 mg added daily to normal chow pellets for 10 weeks by qRT-PCR analysis", "assay_type": "functional, organism-based"}, "Mus musculus [9]": {"species_on_record": "Mus musculus", "assay": "Effect on CD36 mRNA expression levels in adipose tissue of KK-Ay diabetic mouse model at 0.4 to 1.1 mg added daily to normal chow pellets for 10 weeks by qRT-PCR analysis", "assay_type": "functional, organism-based"}, "Mus musculus [10]": {"species_on_record": "Mus musculus", "assay": "Effect on AMPKalpha2 mRNA expression levels in adipose tissue of KK-Ay diabetic mouse model at 0.4 to 1.1 mg added daily to normal chow pellets for 10 weeks by qRT-PCR analysis", "assay_type": "functional, organism-based"}, "Mus musculus [11]": {"species_on_record": "Mus musculus", "assay": "Effect on 18s rRNA expression levels in adipose tissue of KK-Ay diabetic mouse model at 0.4 to 1.1 mg added daily to normal chow pellets for 10 weeks by qRT-PCR analysis", "assay_type": "functional, organism-based"}, "Mus musculus [12]": {"species_on_record": "Mus musculus", "assay": "Effect on PPARgamma mRNA expression levels in muscle of KK-Ay diabetic mouse model at 0.4 to 1.1 mg added daily to normal chow pellets for 10 weeks by qRT-PCR analysis", "assay_type": "functional, organism-based"}, "Mus musculus [13]": {"species_on_record": "Mus musculus", "assay": "Effect on PPARalpha mRNA expression levels in muscle of KK-Ay diabetic mouse model at 0.4 to 1.1 mg added daily to normal chow pellets for 10 weeks by qRT-PCR analysis", "assay_type": "functional, organism-based"}, "Mus musculus [14]": {"species_on_record": "Mus musculus", "assay": "Effect on LXRalpha mRNA expression levels in muscle of KK-Ay diabetic mouse model at 0.4 to 1.1 mg added daily to normal chow pellets for 10 weeks by qRT-PCR analysis", "assay_type": "functional, organism-based"}, "Mus musculus [15]": {"species_on_record": "Mus musculus", "assay": "Effect on InsR mRNA expression levels in muscle of KK-Ay diabetic mouse model at 0.4 to 1.1 mg added daily to normal chow pellets for 10 weeks by qRT-PCR analysis", "assay_type": "functional, organism-based"}, "Mus musculus [16]": {"species_on_record": "Mus musculus", "assay": "Effect on G6PD mRNA expression levels in muscle of KK-Ay diabetic mouse model at 0.4 to 1.1 mg added daily to normal chow pellets for 10 weeks by qRT-PCR analysis", "assay_type": "functional, organism-based"}, "Mus musculus [17]": {"species_on_record": "Mus musculus", "assay": "Effect on FAS mRNA expression levels in muscle of KK-Ay diabetic mouse model at 0.4 to 1.1 mg added daily to normal chow pellets for 10 weeks by qRT-PCR analysis", "assay_type": "functional, organism-based"}, "Mus musculus [18]": {"species_on_record": "Mus musculus", "assay": "Effect on FABP4 mRNA expression levels in muscle of KK-Ay diabetic mouse model at 0.4 to 1.1 mg added daily to normal chow pellets for 10 weeks by qRT-PCR analysis", "assay_type": "functional, organism-based"}, "Mus musculus [19]": {"species_on_record": "Mus musculus", "assay": "Effect on 18s rRNA expression levels in muscle of KK-Ay diabetic mouse model at 0.4 to 1.1 mg added daily to normal chow pellets for 10 weeks by qRT-PCR analysis", "assay_type": "functional, organism-based"}, "Mus musculus [20]": {"species_on_record": "Mus musculus", "assay": "Effect on PPARgamma mRNA expression levels in liver of KK-Ay diabetic mouse model at 0.4 to 1.1 mg added daily to normal chow pellets for 10 weeks by qRT-PCR analysis", "assay_type": "functional, organism-based"}, "Mus musculus [21]": {"species_on_record": "Mus musculus", "assay": "Effect on PPARGC1alpha mRNA expression levels in liver of KK-Ay diabetic mouse model at 0.4 to 1.1 mg added daily to normal chow pellets for 10 weeks by qRT-PCR analysis", "assay_type": "functional, organism-based"}, "Mus musculus [22]": {"species_on_record": "Mus musculus", "assay": "Effect on PKCdelta mRNA expression levels in liver of KK-Ay diabetic mouse model at 0.4 to 1.1 mg added daily to normal chow pellets for 10 weeks by qRT-PCR analysis", "assay_type": "functional, organism-based"}, "Mus musculus [23]": {"species_on_record": "Mus musculus", "assay": "Toxicity in KK-Ay diabetic mouse model assessed as effect on body weight at 1.1 mg added daily to normal chow pellets for 4 weeks", "assay_type": "organism-based", "conditions": "in vivo, po, 672 h"}, "Mus musculus [24]": {"species_on_record": "Mus musculus", "assay": "Effect on G6PD mRNA expression levels in liver of KK-Ay diabetic mouse model at 0.4 to 1.1 mg added daily to normal chow pellets for 10 weeks by qRT-PCR analysis", "assay_type": "functional, organism-based"}, "Mus musculus [25]": {"species_on_record": "Mus musculus", "assay": "Effect on Gcgr mRNA expression levels in liver of KK-Ay diabetic mouse model at 0.4 to 1.1 mg added daily to normal chow pellets for 10 weeks by qRT-PCR analysis", "assay_type": "functional, organism-based"}, "Mus musculus [26]": {"species_on_record": "Mus musculus", "assay": "Effect on FABP4 mRNA expression levels in liver of KK-Ay diabetic mouse model at 0.4 to 1.1 mg added daily to normal chow pellets for 10 weeks by qRT-PCR analysis", "assay_type": "functional, organism-based"}, "Mus musculus [27]": {"species_on_record": "Mus musculus", "assay": "Effect on CD36 mRNA expression levels in liver of KK-Ay diabetic mouse model at 0.4 to 1.1 mg added daily to normal chow pellets for 10 weeks by qRT-PCR analysis", "assay_type": "functional, organism-based"}, "Mus musculus [28]": {"species_on_record": "Mus musculus", "assay": "Effect on Adipor1 mRNA expression levels in liver of KK-Ay diabetic mouse model at 0.4 to 1.1 mg added daily to normal chow pellets for 10 weeks by qRT-PCR analysis", "assay_type": "functional, organism-based"}, "Mus musculus [29]": {"species_on_record": "Mus musculus", "assay": "Effect on 18s rRNA expression levels in liver of KK-Ay diabetic mouse model at 0.4 to 1.1 mg added daily to normal chow pellets for 10 weeks by qRT-PCR analysis", "assay_type": "functional, organism-based"}, "Mus musculus [30]": {"species_on_record": "Mus musculus", "assay": "Effect on PKCdelta mRNA expression levels in adipose tissue of KK-Ay diabetic mouse model at 0.4 to 1.1 mg added daily to normal chow pellets for 10 weeks by qRT-PCR analysis", "assay_type": "functional, organism-based"}, "Mus musculus [31]": {"species_on_record": "Mus musculus", "assay": "Effect on PPARgamma mRNA expression levels in adipose tissue of KK-Ay diabetic mouse model at 0.4 to 1.1 mg added daily to normal chow pellets for 10 weeks by qRT-PCR analysis", "assay_type": "functional, organism-based"}, "Mus musculus [32]": {"species_on_record": "Mus musculus", "assay": "Effect on Sirt1 mRNA expression levels in adipose tissue of KK-Ay diabetic mouse model at 0.4 to 1.1 mg added daily to normal chow pellets for 10 weeks by qRT-PCR analysis", "assay_type": "functional, organism-based"}, "Mus musculus [33]": {"species_on_record": "Mus musculus", "assay": "Effect on SOD2 mRNA expression levels in adipose tissue of KK-Ay diabetic mouse model at 0.4 to 1.1 mg added daily to normal chow pellets for 10 weeks by qRT-PCR analysis", "assay_type": "functional, organism-based"}}, "note": "Active and inactive are the calls of the source. The rule behind the calls is not given here.", "data": [{"smiles": "C[C@@]12CCc3occc3[C@H]1CC[C@@]13C[C@H](CC[C@H]12)[C@@](O)(CO)C3", "values": [{"measurement": "Activity", "setting": "Mus musculus [1]", "value": "> 3", "unit": "g"}, {"measurement": "Activity", "setting": "Mus musculus [2]", "value": "inactive"}, {"measurement": "Activity", "setting": "Mus musculus [3]", "value": "inactive"}, {"measurement": "Activity", "setting": "Mus musculus [4]", "value": "inactive"}, {"measurement": "Activity", "setting": "Mus musculus [5]", "value": "Active"}, {"measurement": "Activity", "setting": "Mus musculus [6]", "value": "Active"}, {"measurement": "Activity", "setting": "Mus musculus [7]", "value": "inactive"}, {"measurement": "Activity", "setting": "Mus musculus [8]", "value": "inactive"}, {"measurement": "Activity", "setting": "Mus musculus [9]", "value": "inactive"}, {"measurement": "Activity", "setting": "Mus musculus [10]", "value": "inactive"}, {"measurement": "Activity", "setting": "Mus musculus [11]", "value": "inactive"}, {"measurement": "Activity", "setting": "Mus musculus [12]", "value": "inactive"}, {"measurement": "Activity", "setting": "Mus musculus [13]", "value": "inactive"}, {"measurement": "Activity", "setting": "Mus musculus [14]", "value": "inactive"}, {"measurement": "Activity", "setting": "Mus musculus [15]", "value": "inactive"}, {"measurement": "Activity", "setting": "Mus musculus [16]", "value": "inactive"}, {"measurement": "Activity", "setting": "Mus musculus [17]", "value": "inactive"}, {"measurement": "Activity", "setting": "Mus musculus [18]", "value": "inactive"}, {"measurement": "Activity", "setting": "Mus musculus [19]", "value": "inactive"}, {"measurement": "Activity", "setting": "Mus musculus [20]", "value": "inactive"}, {"measurement": "Activity", "setting": "Mus musculus [21]", "value": "inactive"}, {"measurement": "Activity", "setting": "Mus musculus [22]", "value": "inactive"}, {"measurement": "Activity", "setting": "Mus musculus [23]", "value": "Non-Toxic"}, {"measurement": "Activity", "setting": "Mus musculus [24]", "value": "inactive"}, {"measurement": "Activity", "setting": "Mus musculus [25]", "value": "inactive"}, {"measurement": "Activity", "setting": "Mus musculus [26]", "value": "inactive"}, {"measurement": "Activity", "setting": "Mus musculus [27]", "value": "inactive"}, {"measurement": "Activity", "setting": "Mus musculus [28]", "value": "inactive"}, {"measurement": "Activity", "setting": "Mus musculus [29]", "value": "inactive"}, {"measurement": "Activity", "setting": "Mus musculus [30]", "value": "inactive"}, {"measurement": "Activity", "setting": "Mus musculus [31]", "value": "inactive"}, {"measurement": "Activity", "setting": "Mus musculus [32]", "value": "inactive"}, {"measurement": "Activity", "setting": "Mus musculus [33]", "value": "inactive"}]}]}
